From publication PMC8934836 (EJNMMI Radiopharmacy and Chemistry, 2022) come the findings set out here.

Data set [1] can be described thus: Preliminary studies on storage stability of the precursor. It counts as physicochemical. To be noted: room temperature.
Data set [2] has as its target T1, α1β3γ2 human GABAARs (Homo sapiens, UniProt P14867+P18507).
T1 construct: expressed in transfected cells; host or cells: mouse fibroblasts, stably expressing; membranes prepared
The data set is described as follows: [^3H]flumazenil in vitro binding assay, α1β3γ2. How it is done: (§1) These samples were serially diluted in 100% DMSO in half-log units such that when 5 µl were added into a total assay volume of 500 µl, the final DMSO concentration in the assay was 1%.
(§2) In brief, mouse fibroblasts stably expressing the four subtypes of human GABAARs that contain a benzodiazepine binding site (i.e., α1-, α2-, α3- and α5β3γ2) were grown, harvested, and membranes were prepared and frozen at -80 °C until required. On the day of the assay, membranes were thawed and reconstituted in assay buffer (75 mM Tris.Cl, pH 7.4, 1 mM EDTA, 12.5 mM MgCl2) at a concentration of 101 µg/ml for α1β3γ2 and 51 µg/ml for α2-, α3- and α5β3γ2 membrane. […] Incubations were performed for 1 h at room temperature before being terminated by filtration and rapid washing (2 × 10 ml of ice-cold 50 mM Tris.Cl, pH 7.4 buffer) over Whatman GF/B filters using a Brandel cell harvester. Filters were then placed in scintillation vials, 4 ml of scintillation fluid added, and radioactivity was counted on a Tricarb 2900 scintillation counter.

Data set [3] addresses T2, α2β3γ2 human GABAARs (Homo sapiens, UniProt P18507+P47869).
T2 construct: expressed in transfected cells; host or cells: mouse fibroblasts, stably expressing; membranes prepared
The data set is described as follows: [^3H]flumazenil in vitro binding assay, α2β3γ2. As to conditions: read-out: Affinity at human GABAAR subtypes, α2β3γ2 (mean Ki). As for the experimental part:
as §1, §2

The target in data set [4] is T3, α3β3γ2 human GABAARs (Homo sapiens, UniProt P18507+P34903).
T3 construct: expressed in transfected cells; host or cells: mouse fibroblasts, stably expressing; membranes prepared
The data set is described as follows: [^3H]flumazenil in vitro binding assay, α3β3γ2. To be noted: read-out: Affinity at human GABAAR subtypes, α3β3γ2 (mean Ki). As for the experimental part:
as §1, §2

Data set [5] addresses T4, α5β3γ2 human GABAARs (Homo sapiens, UniProt P18507+P31644).
T4 construct: expressed in transfected cells; host or cells: mouse fibroblasts, stably expressing; membranes prepared
The data set is described as follows: [^3H]flumazenil in vitro binding assay, α5β3γ2. As for the experimental part: as §1, §2

[6] abbreviates: mouse fibroblast membranes, 4 nM [^3H]flumazenil, Cheng-Prusoff, mean ± SEM of n = 4 separate assays.

Where two headings read alike, the source gives them in different places.

T4 sequence (P31644 32-462): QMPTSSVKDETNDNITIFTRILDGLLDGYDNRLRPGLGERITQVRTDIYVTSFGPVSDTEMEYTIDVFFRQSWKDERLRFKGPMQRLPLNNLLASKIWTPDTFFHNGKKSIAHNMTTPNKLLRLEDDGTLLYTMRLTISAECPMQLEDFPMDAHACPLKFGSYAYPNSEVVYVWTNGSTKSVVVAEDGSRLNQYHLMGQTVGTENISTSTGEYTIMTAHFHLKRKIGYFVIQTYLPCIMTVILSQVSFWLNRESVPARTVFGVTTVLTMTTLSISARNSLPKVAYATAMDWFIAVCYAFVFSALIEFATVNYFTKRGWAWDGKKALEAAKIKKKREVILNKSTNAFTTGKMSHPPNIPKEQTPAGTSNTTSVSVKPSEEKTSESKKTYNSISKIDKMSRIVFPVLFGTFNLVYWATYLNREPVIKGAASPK
T4 sequence (P28472 26-473 partner): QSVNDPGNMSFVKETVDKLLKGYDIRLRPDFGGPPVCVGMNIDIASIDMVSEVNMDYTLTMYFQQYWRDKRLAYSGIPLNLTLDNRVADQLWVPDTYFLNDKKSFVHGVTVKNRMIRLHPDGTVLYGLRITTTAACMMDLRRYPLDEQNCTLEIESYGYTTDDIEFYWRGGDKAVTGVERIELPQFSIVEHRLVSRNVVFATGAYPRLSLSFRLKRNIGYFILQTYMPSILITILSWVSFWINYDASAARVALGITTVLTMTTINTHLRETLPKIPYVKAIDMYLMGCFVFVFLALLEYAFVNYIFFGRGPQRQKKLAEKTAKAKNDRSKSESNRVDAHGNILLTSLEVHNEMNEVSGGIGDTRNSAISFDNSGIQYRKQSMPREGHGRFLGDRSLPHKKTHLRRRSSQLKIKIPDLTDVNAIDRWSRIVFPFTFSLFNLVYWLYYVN
T4 sequence (P18507 40-475): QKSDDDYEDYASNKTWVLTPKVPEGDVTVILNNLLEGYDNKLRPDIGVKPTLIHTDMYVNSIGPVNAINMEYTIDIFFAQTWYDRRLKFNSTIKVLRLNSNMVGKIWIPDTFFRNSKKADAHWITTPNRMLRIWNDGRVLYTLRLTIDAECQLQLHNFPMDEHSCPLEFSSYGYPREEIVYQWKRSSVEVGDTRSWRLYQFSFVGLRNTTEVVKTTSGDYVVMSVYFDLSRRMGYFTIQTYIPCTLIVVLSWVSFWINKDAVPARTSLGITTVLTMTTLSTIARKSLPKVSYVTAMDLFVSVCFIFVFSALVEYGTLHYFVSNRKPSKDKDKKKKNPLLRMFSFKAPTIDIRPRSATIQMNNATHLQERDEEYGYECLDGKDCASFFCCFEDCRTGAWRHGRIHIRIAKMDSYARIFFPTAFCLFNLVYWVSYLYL
T3 sequence (P34903 29-492): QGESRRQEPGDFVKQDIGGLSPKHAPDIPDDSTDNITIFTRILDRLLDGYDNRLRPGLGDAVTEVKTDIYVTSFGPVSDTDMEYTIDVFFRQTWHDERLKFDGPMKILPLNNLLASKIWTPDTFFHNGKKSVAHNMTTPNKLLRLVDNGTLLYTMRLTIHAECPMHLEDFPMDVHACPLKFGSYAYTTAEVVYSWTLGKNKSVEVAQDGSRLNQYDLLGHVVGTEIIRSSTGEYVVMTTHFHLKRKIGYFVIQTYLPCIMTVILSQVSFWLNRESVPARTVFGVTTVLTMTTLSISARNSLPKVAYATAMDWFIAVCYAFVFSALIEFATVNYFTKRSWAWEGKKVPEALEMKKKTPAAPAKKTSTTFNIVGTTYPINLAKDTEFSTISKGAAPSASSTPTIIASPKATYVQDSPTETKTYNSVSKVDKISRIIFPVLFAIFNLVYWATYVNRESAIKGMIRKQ
T3 sequence (P28472 26-473 partner): as the sequence (P28472 26-473 partner) above
T3 sequence (P18507 40-475): as the sequence (P18507 40-475) above
T2 sequence (P47869 29-451): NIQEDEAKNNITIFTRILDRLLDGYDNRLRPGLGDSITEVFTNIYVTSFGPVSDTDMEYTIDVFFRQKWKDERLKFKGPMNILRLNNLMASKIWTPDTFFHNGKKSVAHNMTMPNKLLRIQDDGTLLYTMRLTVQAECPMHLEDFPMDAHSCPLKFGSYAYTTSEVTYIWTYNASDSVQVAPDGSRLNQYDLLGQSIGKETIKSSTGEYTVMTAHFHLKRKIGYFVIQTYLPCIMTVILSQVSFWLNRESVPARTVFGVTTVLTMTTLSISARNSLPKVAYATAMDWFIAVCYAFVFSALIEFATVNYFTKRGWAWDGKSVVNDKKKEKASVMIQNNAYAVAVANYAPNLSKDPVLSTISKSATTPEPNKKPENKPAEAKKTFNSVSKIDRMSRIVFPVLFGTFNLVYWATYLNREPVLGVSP
T2 sequence (P28472 26-473 partner): as the sequence (P28472 26-473 partner) above
T2 sequence (P18507 40-475): as the sequence (P18507 40-475) above
T1 sequence (P14867 28-456): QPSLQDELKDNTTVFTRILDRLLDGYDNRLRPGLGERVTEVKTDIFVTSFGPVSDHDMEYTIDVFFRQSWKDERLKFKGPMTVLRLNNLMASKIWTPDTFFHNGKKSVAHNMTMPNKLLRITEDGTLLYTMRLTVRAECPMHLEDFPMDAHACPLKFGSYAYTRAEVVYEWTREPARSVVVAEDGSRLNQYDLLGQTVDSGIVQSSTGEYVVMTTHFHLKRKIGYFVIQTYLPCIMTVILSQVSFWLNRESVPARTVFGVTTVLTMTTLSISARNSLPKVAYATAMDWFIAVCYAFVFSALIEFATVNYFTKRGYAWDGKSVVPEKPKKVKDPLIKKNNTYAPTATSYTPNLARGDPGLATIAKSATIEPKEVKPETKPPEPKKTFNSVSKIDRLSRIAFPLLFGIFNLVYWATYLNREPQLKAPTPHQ
T1 sequence (P28472 26-473 partner): as the sequence (P28472 26-473 partner) above
T1 sequence (P18507 40-475): as the sequence (P18507 40-475) above

With `CCOC(=O)c1ncn2c1CN(C)C(=O)c1cc(B3OC(C)(C)C(C)(C)O3)ccc1-2` [FMZ-BPin, Ethyl 5-methyl-6-oxo-8(4,4,5,5-tetramethyl-1,3,2-dioxaborolan-2-yl)-5,6-dihydro-4H-benzo[f]imidazo[1,5-a][1,4]diazepine-3-carboxylate], the “Stable for prolonged storage” value in data set [1] is on record as above 9 months.
For `CCOC(=O)c1ncn2c1CN(C)C(=O)c1ccccc1-2` [HMZ, ethyl 5-methyl-6-oxo-5,6-dihydro-4H-benzo[f]imidazo[1,5-a][1,4]diazepine-3-carboxylate], the Ki in data set [2] stood at 24 ± 3 nM; in data set [3], 15 ± 2 nM; in data set [4], 11 ± 4 nM; in data set [5], 1.7 ± 0.2 nM.
In the case of `CCOC(=O)c1ncn2c1CN(C)C(=O)c1cc(O)ccc1-2` [OHMZ, Flumazenil impurity B], the inhibition constant Ki in data set [2] (mouse fibroblast membranes, 4 nM [^3H]flumazenil, Cheng-Prusoff, mean ± SEM of n = 4 separate assays, read-out: Affinity at human GABAAR subtypes, α1β3γ2 (mean Ki)) came to 5.4 ± 0.6 nM; in data set [3] (setting [6]) it was 7.3 ± 1.5 nM; in data set [4] (setting [6]), 2.7 ± 0.9 nM; in data set [5] (mouse fibroblast membranes, 4 nM [^3H]flumazenil, Cheng-Prusoff, mean ± SEM of n = 4 separate assays, read-out: Affinity at human GABAAR subtypes, α5β3γ2 (mean Ki)), 0.5 ± 0.1 nM.

What is called Ki is the dissociation constant of the complex between target and ligand, obtained from inhibition or displacement.
